# Laboratory results taken from BindingDB's records for doi:10.1074/jbc.M113.476234 (The Scripps Research Institute, 2013).
# Legend:
# [1] = target: T1, Kappa-type opioid receptor (Homo sapiens, UniProt P41145); assay: [35S]GTPγS Coupling Assay
# [2] = target: T1, Kappa-type opioid receptor; assay: β-Arrestin2 Assay
# T1 sequence (P41145 whole entry): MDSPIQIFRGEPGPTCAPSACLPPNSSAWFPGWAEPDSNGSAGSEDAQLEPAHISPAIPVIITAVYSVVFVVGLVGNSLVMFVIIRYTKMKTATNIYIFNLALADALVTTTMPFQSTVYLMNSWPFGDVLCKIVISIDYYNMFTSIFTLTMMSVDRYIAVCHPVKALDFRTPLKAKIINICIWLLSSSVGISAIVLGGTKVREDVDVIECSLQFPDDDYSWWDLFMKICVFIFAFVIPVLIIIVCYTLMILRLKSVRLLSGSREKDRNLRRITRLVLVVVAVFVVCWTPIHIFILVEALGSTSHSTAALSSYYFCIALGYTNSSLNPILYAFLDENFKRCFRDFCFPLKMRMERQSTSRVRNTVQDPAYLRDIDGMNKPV
structure (smiles),measurement,setting,value
NC(N)=Nc1ccc2[nH]c3c(c2c1)C[C@@]1(O)[C@@H]2Cc4ccc(O)c5c4[C@@]1(CCN2CC1CC1)[C@H]3O5 [5'-Guanidinonaltrindole (5'-GNTI)],IC50,[1],0.07 nM
same,IC50,[2],0.8 nM
